Reference: patent publication US20060134063A1, “Agents for proliferating pancreatic beta-cells of the islets of langerhans, agents for suppressing apoptosis of said cells, and screening of candidate compounds for these agents” (priority 2000, published 2006)
pIC50: −log10 of the molar value.

What was measured:
[1] = molecular target: T1, poly(ADP-ribose) synthetase/polymerase (PARP) (Rattus norvegicus, UniProt P27008); assay: GMSA binding reaction of RINm5F nuclear extracts, effects of ADP-ribosylation; type: biochemical; settings: 1 mM β-NAD+ in the GMSA binding reaction; read-out: concentrations of half maximal inhibition (quenching of the effect of β-NAD+ on the GMSA band)
T1 construct: Nuclear extracts from RINm5F cells were prepared as described; endogenous in cells; host or cells: RINm5F (rat insulinoma) nuclear extract
Procedure: The nuclear extract (10 μg) was incubated in a final volume of 20 μl of buffer containing 20 mM Tris-HCl (pH 7.9), 2 mM MgCl2, 50 mM NaCl, 2 mM EDTA, 10% glycerol, 0.1% Nonidet P-40, 1 mM DTT, 50 μg/ml bovine serum albumin and 1 μg of poly(dI-dC). After incubation for 10 min at room temperature, 2.5 pmol of double-stranded DNA, previously labeled by an exchange reaction using MEGALABEL (Takara Shuzo) and [γ-^32P]ATP (Amersham Pharmacia Biotech), were added and incubated for 30 min at room temperature, then the binding reactions were resolved on pre-run 6% acrylamide gel. […] After electrophoresis, DNA/proteins were electrophoretically transferred to a PolyScreen™ PVDF membrane (NEN).
Poly(ADP-ribosyl)ation of nuclear proteins was performed in the same condition as GMSA in the presence of 62 nM [adenylate-^32P]NAD^+ (2×10^6 cpm, NEN). The ADP-ribosylated proteins were precipitated by the addition of 9 volume of acetone, separated by SDS-PAGE (12.5%) and autoradiographed.

[2] = system: 5'-flanking region of the rat Reg gene; assay: Reg promoter/luciferase reporter assay in RINm5F cells; type: cell-based
Procedure: A 2,303-bp fragment containing the 5′-flanking region of Reg gene was fused to the luciferase gene and transfected into RINm5F β-cells.
Specifically, luciferase reporter gene constructs were generated as described in Miyashita, H. et al. (1994) Biochim. Biophys. Acta, 1219, 241-243. RINm5F cells were seeded at 1×10^5 cells/well in 24-well dish. After 48 h, 3.0 μg of test plasmid and 0.2 μg of pCMV-SPORT β-gal (Life Technologies, Inc.) were transfected by lipofection (Felgner, J. H. et al. (1994) J. Biol. Chem., 269, 2550-2561) using DMRIE-C™ (Life Technologies, Inc.). After 24 h, the medium of each dish was replaced with fresh medium containing stimulants and incubated further for 24 h. Cells were harvested in 1 ml of ice-cold phosphate-buffered saline (PBS), washed twice with PBS, and extracts were prepared in extraction buffer (0.1 M potassium phosphate, pH 6.8, 1 mM DTT). The protein concentration was determined using a Coomassie reagent kit (Pierce) and bovine serum albumin as a standard. Luciferase activity was determined by a chemiluminescence substrate using a Pica Gene™ Luminescence Kit (Toyo Ink Mfg. Co, Ltd., Tokyo, Japan). β-galactosidase activity was determined using Aurora™ GAL-XE (ICN).

[3] = nicotinamide added to IL-6/dexamethasone

T1 sequence (P27008 whole entry): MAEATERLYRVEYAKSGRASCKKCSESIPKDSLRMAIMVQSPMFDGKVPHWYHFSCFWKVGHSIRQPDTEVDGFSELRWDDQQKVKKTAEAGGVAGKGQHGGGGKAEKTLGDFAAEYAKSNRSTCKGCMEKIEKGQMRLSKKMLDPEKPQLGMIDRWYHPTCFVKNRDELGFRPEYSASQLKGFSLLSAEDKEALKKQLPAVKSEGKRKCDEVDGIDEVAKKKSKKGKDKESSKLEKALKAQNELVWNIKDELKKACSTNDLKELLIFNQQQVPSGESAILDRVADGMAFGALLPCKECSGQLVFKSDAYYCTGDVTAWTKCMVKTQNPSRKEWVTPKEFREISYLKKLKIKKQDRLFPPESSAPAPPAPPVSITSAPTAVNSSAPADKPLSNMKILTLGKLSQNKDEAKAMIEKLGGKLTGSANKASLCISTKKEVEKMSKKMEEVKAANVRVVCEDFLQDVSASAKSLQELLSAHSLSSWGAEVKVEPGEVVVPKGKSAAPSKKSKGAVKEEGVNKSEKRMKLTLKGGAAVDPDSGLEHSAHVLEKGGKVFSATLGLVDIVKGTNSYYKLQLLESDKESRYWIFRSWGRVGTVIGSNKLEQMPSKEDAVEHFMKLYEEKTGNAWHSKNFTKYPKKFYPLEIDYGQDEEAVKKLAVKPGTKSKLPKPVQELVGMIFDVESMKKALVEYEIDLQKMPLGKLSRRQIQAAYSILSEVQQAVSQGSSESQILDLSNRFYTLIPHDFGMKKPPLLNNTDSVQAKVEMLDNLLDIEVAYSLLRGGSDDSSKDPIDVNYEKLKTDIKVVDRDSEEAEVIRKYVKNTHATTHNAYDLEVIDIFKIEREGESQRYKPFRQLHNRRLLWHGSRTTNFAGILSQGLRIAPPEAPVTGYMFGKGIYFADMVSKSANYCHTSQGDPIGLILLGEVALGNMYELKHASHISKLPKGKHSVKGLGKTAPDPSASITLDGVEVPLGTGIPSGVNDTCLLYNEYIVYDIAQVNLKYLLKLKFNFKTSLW

pIC50 [1]: 3.60
SMILES: NC(=O)c1cccnc1 [nicotinamide]
luciferase activity (result in words) ([2]; 2,303-bp Reg 5'-flanking fragment, 24 h stimulation): ineffective
enhancement of IL-6/dexamethasone-induced transcription of Reg gene, "-70" construct [2, 3]: abolished
enhancement of IL-6/dexamethasone-induced transcription of Reg gene, -2,303 to -81 deletions [2, 3]: the enhancement was observed
